Laboratory results taken from patent US11046696B2, “Fused pyrimidine compound or salt thereof” (TAIHO PHARMACEUTICAL CO., LTD., priority 2016, dated 2021).

Assay: Evaluation of stability in liver microsome
Conditions: mouse liver microsome, 1 μM, 37° C. for 30 minutes
Procedure: Solutions of the test compounds in DMSO/acetonitrile (the final concentration of each test compound was 1 μM, the final concentration of DMSO was 0.01%, and the final concentration of acetonitrile was 1%) were individually added to a liver microsome mixture solution (mouse liver microsome with a final concentration of 0.25 mg/mL, a potassium phosphate buffer with a final concentration of 100 mM, and magnesium chloride with a final concentration of 3 mM), and each mixture was pre-incubated at 37° C. for 5 minutes. […] After incubation at 37° C. for 30 minutes, a double amount of ethanol was added thereto to terminate the reaction, thereby obtaining post-reaction samples. A double amount of ethanol was added to each of the remaining mixture solutions, and a NADPH-generating system was further added thereto, thereby obtaining pre-reaction samples. The pre-reaction samples and post-reaction samples were centrifuged at 2000×g, and their supernatant was filtered through a glass filter. Each filtrate was then introduced into LC-MS/MS, and MS/MS peaks of the test compounds were detected. From the ratio of the post-reaction MS/MS peak to the pre-reaction MS/MS peak of the test compounds, the percentage of the remaining test compounds (remaining %) was calculated.

COCc1ccc(NC(=O)c2cn(C3(C)CC3)c3ncnc(N)c23)cc1 [Example 36, 4-amino-N-(4-(methoxymethyl)phenyl)-7-(1-methylcyclopropyl)-7H-pyrrolo[2,3-d]pyrimidine-5-carboxamide]
Remaining (%): 73%

COCc1ccc(NC(=O)c2cn(C3(C4CC4)CC3)c3ncnc(N)c23)cc1 [Example 49, 7-{[1,1-bi(cyclopropane)]-1-yl}-4-amino-N-(4-(methoxymethyl)phenyl)-7H-pyrrolo[2,3-d]pyrimidine-5-carboxamide]
Remaining (%): 67%

COCc1ccc(NC(=O)c2c(SC)n(C3(C)CC3)c3ncnc(N)c23)cc1 [Example 133, 4-amino-N-(4-methoxymethyl)phenyl-7-(1-methylcyclopropyl)-6-(methylthio)-7H-pyrrolo[2,3-d]pyrimidine-5-carboxamide]
Remaining (%): 70%

COCc1ccc(NC(=O)c2c(C#Cc3cnc4[nH]ccc4c3)n(C3(C)CC3)c3ncnc(N)c23)cc1 [Example 128, 6-((1H-pyrrolo[2,3-b]pyridin-5-yl)ethynyl)-4-amino-N-(4-(methoxymethyl)phenyl)-7-(1-methylcyclopropyl)-7H-pyrrolo[2,3-d]pyrimidine-5-carboxamide]
Remaining (%): 82%

COCc1ccc(NC(=O)c2cn(C(C)(C)C(F)F)c3ncnc(N)c23)cc1 [Example 50, 4-amino-7-(1,1-difluoro-2-methylpropan-2-yl)-N-(4-(methoxymethyl)phenyl)-7H-pyrrolo[2,3-d]pyrimidine-5-carboxamide]
Remaining (%): 53%

COCc1ccc(NC(=O)c2c(OC)n(C3(C)CC3)c3ncnc(N)c23)cc1 [Example 57, 4-amino-6-methoxy-N-[4-(methoxymethyl)phenyl]-7-(1-methylcyclopropyl)-7H-pyrrolo[2,3-d]pyrimidine-5-carboxamide]
Remaining (%): 86%

COCc1ccc(NC(=O)c2c(-c3ccc(NC(C)=O)nc3)n(C3(C)CC3)c3ncnc(N)c23)cc1 [Example 147, 6-(6-acetamidopyridin-3-yl)-4-amino-N-(4-(methoxymethyl)phenyl)-7-(1-methylcyclopropyl)-7H-pyrrolo[2,3-d]pyrimidine-5-carboxamide]
Remaining (%): 68%

COCc1ccc(NC(=O)c2c(C#Cc3ccccn3)n(C3(C)CC3)c3ncnc(N)c23)cc1 [Example 172, 4-amino-N-[4-(methoxymethyl)phenyl]-7-(1-methylcyclopropyl)-6-(pyridin-2-ylethynyl)-7H-pyrrolo[2,3-d]pyrimidine-5-carboxamide]
Remaining (%): 61%

COCc1ccc(NC(=O)c2cn(C(C)(C)CF)c3ncnc(N)c23)cc1F [Example 41, 4-amino-7-(1-fluoro-2-methylpropan-2-yl)-N-(3-fluoro-4-(methoxymethyl)phenyl)-7H-pyrrolo[2,3-d]pyrimidine-5-carboxamide]
Remaining (%): 56%

COCc1ccc(NC(=O)c2c(C)n(C(C)(C)C)c3ncnc(N)c23)cc1 [Example 60, 4-amino-7-(tert-butyl)-N-(4-(methoxymethyl)phenyl)-6-methyl-7H-pyrrolo[2,3-d]pyrimidine-5-carboxamide]
Remaining (%): 81%

COCc1ccc(NC(=O)c2c(C#Cc3ccc(OC)nc3)n(C3(C)CC3)c3ncnc(N)c23)cc1 [Example 192, 4-amino-N-(4-(methoxymethyl)phenyl)-6-((6-methoxypyridin-3-yl)ethynyl)-7-(1-methylcyclopropyl)-7H-pyrrolo[2,3-d]pyrimidine-5-carboxamide]
Remaining (%): 79%

COCc1ccc(NC(=O)c2c(C#Cc3c[nH]c4ccccc34)n(C3(C)CC3)c3ncnc(N)c23)cc1 [Example 121, 6-((1H-indol-3-yl)ethynyl)-4-amino-N-(4-(methoxymethyl)phenyl)-7-(1-methylcyclopropyl)-7H-pyrrolo[2,3-d]pyrimidine-5-carboxamide]
Remaining (%): 74%

COCc1ccc(NC(=O)c2c(C#CC(C)(C)N)n(C3(C)CC3)c3ncnc(N)c23)cc1 [Example 134, 4-amino-6-(3-amino-3-methylbut-1-yn-1-yl)-N-(4-(methoxymethyl)phenyl)-7-(1-methylcyclopropyl)-7H-pyrrolo[2,3-d]pyrimidine-5-carboxamide]
Remaining (%): 79%

COCc1ccc(NC(=O)c2c(C#Cc3csc(C)n3)n(C3(C)CC3)c3ncnc(N)c23)cc1 [Example 126, 4-amino-N-(4-(methoxymethyl)phenyl)-7-(1-methylcyclopropyl)-6-((2-methylthiazol-4-yl)ethynyl)-7H-pyrrolo[2,3-d]pyrimidine-5-carboxamide]
Remaining (%): 69%

COCc1ccc(NC(=O)c2c(C#Cc3cnc[nH]3)n(C3(C)CC3)c3ncnc(N)c23)cc1 [Example 191, 6-((1H-imidazol-5-yl)ethynyl)-4-amino-N-(4-(methoxymethyl)phenyl)-7-(1-methylcyclopropyl)-7H-pyrrolo[2,3-d]pyrimidine-5-carboxamide]
Remaining (%): 53%

COCc1ccc(NC(=O)c2c(C#Cc3c(C)noc3C)n(C3(C)CC3)c3ncnc(N)c23)cc1 [Example 184, 4-amino-6-((3,5-dimethylisoxazol-4-yl)ethynyl)-N-(4-(methoxymethyl)phenyl)-7-(1-methylcyclopropyl)-7H-pyrrolo[2,3-d]pyrimidine-5-carboxamide]
Remaining (%): 58%

COCc1ccc(NC(=O)c2c(C#CC3CCOCC3)n(C3(C)CC3)c3ncnc(N)c23)cc1 [Example 87, 4-amino-N-[4-(methoxymethyl)phenyl]-7-(1-methylcyclopropyl)-6-((tetrahydro-2H-pyran-4-yl)ethynyl)-7H-pyrrolo[2,3-d]pyrimidine-5-carboxamide]
Remaining (%): 63%

COCc1ccc(NC(=O)c2c(-c3cccnc3)n(C3(C)CC3)c3ncnc(N)c23)cc1 [Example 61, 4-amino-N-(4-(methoxymethyl)phenyl)-7-(1-methylcyclopropyl)-6-(pyridin-3-yl)-7H-pyrrolo[2,3-d]pyrimidine-5-carboxamide]
Remaining (%): 81%

COCc1ccc(NC(=O)c2c(C#Cc3cccs3)n(C3(C)CC3)c3ncnc(N)c23)cc1 [Example 119, 4-amino-N-(4-(methoxymethyl)phenyl)-7-(1-methylcyclopropyl)-6-(thiophen-2-ylethynyl)-7H-pyrrolo[2,3-d]pyrimidine-5-carboxamide]
Remaining (%): 70%

COCc1ccc(NC(=O)c2c(C#Cc3ccc4c(c3)NCCO4)n(C3(C)CC3)c3ncnc(N)c23)cc1 [Example 158, 4-amino-6-((3,4-dihydro-2H-benzo[b][1,4]oxazin-6-yl)ethynyl)-N-(4-(methoxymethyl)phenyl)-7-(1-methylcyclopropyl)-7H-pyrrolo[2,3-d]pyrimidine-5-carboxamide]
Remaining (%): 85%

COCc1ccc(NC(=O)c2c(C#CC3CCOCC3)n(C3(C)CC3)c3ncnc(N)c23)cc1F [Example 205, 4-amino-N-(3-fluoro-4-(methoxymethyl)phenyl)-7-(1-methylcyclopropyl)-6-((tetrahydro-2H-pyran-4-yl)ethynyl)-7H-pyrrolo[2,3-d]pyrimidine-5-carboxamide]
Remaining (%): 58%

COCc1ccc(NC(=O)c2c(-c3ccccc3)n(C3(C)CC3)c3ncnc(N)c23)cc1 [Example 154, 4-amino-N-(4-(methoxymethyl)phenyl)-7-(1-methylcyclopropyl)-6-phenyl-7H-pyrrolo[2,3-d]pyrimidine-5-carboxamide]
Remaining (%): 50%

COCc1ccc(NC(=O)c2cn(C3(C)CC3)c3ncnc(N)c23)cc1F [Example 48, 4-amino-N-(3-fluoro-4-(methoxymethyl)phenyl)-7-(1-methylcyclopropyl)-7H-pyrrolo[2,3-d]pyrimidine-5-carboxamide]
Remaining (%): 58%

COCc1ccc(NC(=O)c2c(C(C)O)n(C3(C)CC3)c3ncnc(N)c23)cc1 (stereo not shown) [Example 204, 4-amino-6-(1-hydroxyethyl)-N-(4-(methoxymethyl)phenyl)-7-(1-methylcyclopropyl)-7H-pyrrolo[2,3-d]pyrimidine-5-carboxamide]
Remaining (%): 83%

COCc1ccc(NC(=O)c2c(Cl)n(C3(C)CC3)c3ncnc(N)c23)cc1 [Example 56, 4-amino-6-chloro-N-[4-(methoxymethyl)phenyl]-7-(1-methylcyclopropyl)-7H-pyrrolo[2,3-d]pyrimidine-5-carboxamide]
Remaining (%): 62%

COCc1ccc(NC(=O)c2c(C#CCC3(O)CCC3)n(C3(C)CC3)c3ncnc(N)c23)cc1 [Example 103, 4-amino-6-(3-(1-hydroxycyclobutyl)prop-1-yn-1-yl)-N-(4-(methoxymethyl)phenyl)-7-(1-methylcyclopropyl)-7H-pyrrolo[2,3-d]pyrimidine-5-carboxamide]
Remaining (%): 60%

COCc1ccc(NC(=O)c2c(C#Cc3cccnc3)n(C3(C)CC3)c3ncnc(N)c23)cc1 [Example 94, 4-amino-N-[4-(methoxymethyl)phenyl]-7-(1-methylcyclopropyl)-6-(pyridin-3-ylethynyl)-7H-pyrrolo[2,3-d]pyrimidine-5-carboxamide]
Remaining (%): 60%

COCc1ccc(NC(=O)c2c(C#CCC3(O)CCOCC3)n(C3(C)CC3)c3ncnc(N)c23)cc1 [Example 143, 4-amino-6-(3-(4-hydroxytetrahydro-2H-pyran-4-yl)prop-1-yn-1-yl)-N-(4-(methoxymethyl)phenyl)-7-(1-methylcyclopropyl)-7H-pyrrolo[2,3-d]pyrimidine-5-carboxamide]
Remaining (%): 68%

COCc1ccc(NC(=O)c2c(C#Cc3cncc(F)c3)n(C3(C)CC3)c3ncnc(N)c23)cc1 [Example 175, 4-amino-6-((5-fluoropyridin-3-yl)ethynyl)-N-(4-(methoxymethyl)phenyl)-7-(1-methylcyclopropyl)-7H-pyrrolo[2,3-d]pyrimidine-5-carboxamide]
Remaining (%): 66%

COCc1ccc(NC(=O)c2c(/C=C/CO)n(C3(C)CC3)c3ncnc(N)c23)cc1 [Example 109, (E)-4-amino-6-(3-hydroxyprop-1-en-1-yl)-N-(4-(methoxymethyl)phenyl)-7-(1-methylcyclopropyl)-7H-pyrrolo[2,3-d]pyrimidine-5-carboxamide]
Remaining (%): 68%

C=Cc1c(C(=O)Nc2ccc(COC)cc2)c2c(N)ncnc2n1C1(C)CC1 [Example 65, 4-amino-N-(4-(methoxymethyl)phenyl)-7-(1-methylcyclopropyl)-6-vinyl-7H-pyrrolo[2,3-d]pyrimidine-5-carboxamide]
Remaining (%): 79%
